Measurements: patent US20150231209A1, “STIMULATION OF OVARIAN FOLLICLE DEVELOPMENT AND OOCYTE MATURATION” (THE BOARD OF TRUSTEES OF THE LELAND STANFORD JUNIOR …, priority 2012, published 2015)

Key:
[1] = biological target: PTEN (Homo sapiens, UniProt P60484); conditions: read-out: IC50, inhibits PTEN; cited from earlier work
[2] = tested on: CCN2 transcripts; test: Real-time RT-PCR of CCN2 transcripts after verteporfin pretreatment and ovarian fragmentation; type: in vivo; conditions: day 10 mice injected i.p. for 3 h before fragmentation; 4 h after incubation
Protocol: (§1) FIG. 7. Pre-treatment with verteporfin and CCN2 antibodies suppressed fragmentation-induced ovarian growth. A, Pretreatment with verteporfin suppressed fragmentation-induced increases in CCN2, but not AMH, transcript levels. Juvenile mice were injected i.p. with verteporfin for 3 h before retrieving ovaries for fragmentation. At 4 h after incubation, transcript levels for CCN2 and AMH were determined by real-time RT-PCR. n=6-12. […] Ovaries from juvenile mice pre-injected with verteporf in for 3 h were fragmented and incubated for 1 h before grafting into FSH-treated hosts for 5 days followed by determination of graft weights. Numbers in parentheses are number of samples used. C, Follicle dynamics of intact and fragmented ovarian grafts from animals with or without verteporf in (VP) pretreatment. n=3-5. D, Incubation of fragmented ovaries with CCN2 antibodies suppressed ovarian weight increases. Paired ovaries were fragmented into 3 pieces followed by incubation with CCN2 antibodies or non-immune-IgG for 18 h before grafting for 5 days. Mean±SEM; *p<0.05.
(§2) Roles of Hippo signaling and CCN2 in fragmentationinduced follicle growth: YAP has no transcriptional activity and its actions are dependent on downstream transcriptional factors. […]

[3] = tested on: AMH transcripts; test: Real-time RT-PCR of AMH transcripts after verteporfin pretreatment and ovarian fragmentation; type: in vivo; conditions: day 10 mice injected i.p. for 3 h before fragmentation; 4 h after incubation
Protocol: as §1, §2

[4] = tested on: ovarian grafts; test: Ovarian grafting under kidney capsule of FSH-treated hosts: graft weights and follicle counting; type: in vivo, mice
Protocol: FIG. 3. Additive effects of Hippo signaling disruption and Akt stimulation promoted secondary follicle growth. A) Secondary follicles are responsive to IVA treatment. Secondary follicles (115 um in diameter) were isolated from mice at day 10 of age and cultured in vitro with the standard IVA protocol (first day with bPV(hopic) at 3 mM and 740YP at 15 ug/ml, followed by one more day with 740YP alone), followed by treatment with daily FSH (100 ng/ml) for two more days (IVA+FSH). The control groups were either treatment with media alone for four days or treated with the IVA reagent for two days followed by media alone (IVA alone). B) Ovarian fragmentation and IVA treatment led to additive effects on ovarian weight gain and secondary follicle growth. Paired ovaries from mice at day 10 of age were fragmented into three pieces. Fragments from one side were treated with the IVA protocol (bpV(hopic) at 30 uM and 740YP at 150 ng/ml for one day, followed by one more day with 740YP only) whereas fragments from the contralateral side were incubated in media alone. Ovarian fragments were then allo-transplanted into kidney capsules of adult ovariectomized mice with hosts injected with FSH (daily at 1 IU/animal). Five 5 days later, ovarian grafts were retrieved, fixed and weighted. Left panel: graft weights; right panel: Follicle dynamics of grafted ovarian fragments. Percentages of follicles at different stages were determined based on serial sections of grafts. C, Follicle dynamics before and after grafting of intact and fragmented murine ovaries with or without treatment with Akt stimulators. Left: total follicle numbers, Right: follicle dynamics. n=4. Same letter symbols indicate significant differences (p<0.05). D-F. Vitrified human cortical strips were thawed and fragmented into cubes before treatment with Akt stimulators for 2 days followed by grafting into immune-deficient mice for 4 weeks. D. Cortical strips before grafting. Arrow: a secondary follicle, arrowheads: primordial/primary follicles. Scale bar, 100 μm. E. A kidney graft in situ (left) and after isolation (right), showing an antral follicle. F. Histology of two large antral follicles with the side view of one showing an oocyte at the germinal vesicle stage (arrow). Scale bar, 1 mm. Mean±SEM; * p<0.05.
as §1
Left upper panel: Paired ovaries from day 10 mice were treated with or without JASP (10 μM) for 30 min. before analyses of F- and G-actin content. Left lower panel: Real-time RT-PCR analyses of CCN2 transcript levels after 30 min. exposure to JASP. Right panel: Immunoblotting analyses of CCN2 protein levels after 30 min. treatment with JASP. Upper panel: Immunoblotting analyses. Lower panel: quantitative analyses of densitometric scanning data. Numbers in parentheses are number of samples used. * p<0.05. […]

[5] = tested on: ovaries from day 10 mice; test: Ovarian explant cultures: ovarian weight and follicle dynamics; type: cell-based; conditions: for ovarian explant weights: explants from day 10 mice cultured with CCN growth factors for 4 days
Protocol: FIG. 2. […] A, Ovarian fragmentation increased F-actin levels. Paired ovaries from day 10 mice were cut into 3 pieces or kept intact before immunoblotting analyses of F- and G-actin levels (upper panel). Lower panel: F- to G-actin ratios. N=6-11. B, Ovarian fragmentation decreased phospho-YAP(pYAP) levels and pYAP to total YAP ratios. Paired ovaries with or without cutting were incubated for 1 h, followed by immunoblotting. Left panel: representative immunoblots; Right panel: ratios of different antigens. n=8 pairs. C, Ovarian fragmentation increased expression of CCN growth factors and BIRC apoptosis inhibitors. Paired ovaries with or without cutting were incubated for 1 h […] before analyses of transcript levels normalized by GAPDH. Intact ovaries: solid lines; pooled 3 pieces: dashed lines. n=10-15. D, Ovarian fragmentation increased CCN2 proteins. Paired ovaries with or without cutting were incubated for 3-5 h before immunoblotting. Upper panel: representative blots; lower panel: quantitative analyses. N=3-5. E, Treatment with CCN2, 3, 5, and 6 increased ovarian explant weights. Explants from day 10 mice were cultured with different CCN growth factors for 4 days before weighing. n=5-6. Mean±SEM; * p<0.05. IN=Intact; PI=Pieces.
FIG. 6. Increased expression of CCN growth factors and BIRO inhibitors after ovarian fragmentation and the ability of CCN growth factors to promote follicle development. A, Ovarian fragmentation without subsequent grafting increased the expression of key CCN growth factors (CCN2, 3, 5, and 6) and apoptosis inhibitors (BIRC1 and 7). Paired ovaries from day 10 mice with or without cutting into 3 pieces were incubated for up to 7 h before analyses of transcript levels for different genes. Intact ovaries: solid lines; three pieces: dashed lines. n=10-15. B, Increases in CCN2 expression in somatic cells of fragmented ovaries. Paired ovaries from day 10 mice with or without cutting into 3 pieces were cultured for 1 h and then transplanted under kidney capsules. At 3 h after transplantation, ovaries were dissected followed by isolation of oocytes and somatic cells as previously described (2). CCN2 and GAPDH mRNA levels were measured by real-time RT-PCR (n=4). *, P<0.05 vs intact. C. Treatment with CCN growth factors promoted preantral follicle development in ovarian explants. Following explant cultures with different CCN growth factors, follicle dynamics were determined by counting the percentages of follicles at different developmental stages. Mean±SEM; *p<0.05, n=5.
Ovaries from day 10 mice were placed on culture plate insert (Millipore) and cultured in DMEM/F12 containing 0.1% BSA, 0.1% Albumax II, insulin-transferrin-selenium, 0.05 mg/ml L-ascorbic acid and penicillin-streptomycin for 4 days with medium changes after 2 days of culture as described. At the end of culture, ovarian weight was measured and some of the ovaries were embedded for histological analyses of follicle dynamics.
We tested the ability of S1P to promote follicle growth. […] We hypothesized that S1P acts through its receptors in granulosa cells to trigger actin polymerization, disrupt Hippo signaling and promote follicle growth.

[6] = tested on: oocytes; conditions: intrabursal treatment; cited from earlier work
[7] = pretreatment for 3 h, grafting 5 days

Chain of PTEN (P60484 whole entry, the tested form may be a part): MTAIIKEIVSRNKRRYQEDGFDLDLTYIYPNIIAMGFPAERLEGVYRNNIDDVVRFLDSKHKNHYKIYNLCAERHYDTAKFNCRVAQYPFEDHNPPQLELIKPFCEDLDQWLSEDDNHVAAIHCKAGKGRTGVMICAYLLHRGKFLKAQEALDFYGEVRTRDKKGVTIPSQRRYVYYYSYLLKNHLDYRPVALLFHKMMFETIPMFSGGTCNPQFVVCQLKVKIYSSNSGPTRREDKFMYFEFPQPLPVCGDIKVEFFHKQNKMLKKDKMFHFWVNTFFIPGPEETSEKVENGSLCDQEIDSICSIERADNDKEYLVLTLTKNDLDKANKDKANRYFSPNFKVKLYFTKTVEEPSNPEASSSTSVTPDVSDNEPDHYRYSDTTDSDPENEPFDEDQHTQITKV

In the case of “dipotassium bisperoxo(5-hydroxypyridine-2-carboxyl)oxovanadate (V)”, the IC50 [1] is given as 14 nM.

In the case of `O=C([O-])c1ccccn1.OO.OO.[K+].[K+].[OH-].[V]` [dipotassium bisperoxo(picolinato)oxovanadate (V)], the IC50 [1] is given as 31 nM.

With verteporfin the “fragmentation-induced increases in CCN2 transcripts” value [2] was “blocked”, the “transcripts for anti-Müllerian hormone (AMH)” value [3] was “without affecting” and the “graft weights, intact versus fragmented pairs” value ([4]; pretreatment for 3 h, fragmentation, grafting into FSH-treated hosts for 5 days) was “no significant changes”. The antral/preovulatory follicles [4, 7] was “smaller suppression”, the “fragmentation induced increases in late secondary follicles” value [4, 7] was “prevented” and the “total follicles in grafts” value [4, 7] was “no loss of total follicles”.

For `CCCCCCCCCCCCC/C=C/[C@@H](O)[C@@H](N)COP(=O)(O)O` [S1P, sphingosine 1-phosphate], the “ovarian weights in explant culture” value ([5]; 6 μM, 4 days, ovaries from day 10 mice) is listed as “major increases in ovarian weights”, the graft weights ([4]; 6 μM S1P for 18 h, grafting into adult ovariectomized hosts for 5 days) is listed as “increases in graft weights” and the “oocyte apoptosis induced by X-irradiation” value [6] is listed as “suppressed”.

For `OO.OO.[K+].[OH-].[V].c1cnc2c(c1)ccc1cccnc12` [potassium bisperoxo (1,10-phenanthroline)oxovanadate (V)], the IC50 [1] is given as 38 nM.

In the case of “potassium bisperoxo(bipyridine)oxovanadate (V)”, the IC50 [1] is listed as 18 nM.

B1: CCN2: CCN growth factor protein, acts downstream of disrupted Hippo signaling (protein, UniProt P29279 27-349, looked up)
CCN family member 2: QNCSGPCRCPDEPAPRCPAGVSLVLDGCGCCRVCAKQLGELCTERDPCDPHKGLFCHFGSPANRKIGVCTAKDGAPCIFGGTVYRSGESFQSSCKYQCTCLDGAVGCMPLCSMDVRLPSPDCPFPRRVKLPGKCCEEWVCDEPKDQTVVGPALAAYRLEDTFGPDPTMIRANCLVQTTEWSACSKTCGMGISTRVTNDNASCRLEKQSRLCMVRPCEADLEENIKKGKKCIRTPKISKPIKFELSGCTSMKTYRAKFCGVCTDGRCCTPHRTTTLPVEFKCPDGEVMKKNMMFIKTCACHYNCPGDNDIFESLYYRKMYGDMA
With B1 the ovarian explant weights [5] was “dose-dependent increases”.

B2: CCN6: CCN growth factor protein (protein, UniProt O95389 24-354, looked up)
Cellular communication …: TGPLDTTPEGRPGEVSDAPQRKQFCHWPCKCPQQKPRCPPGVSLVRDGCGCCKICAKQPGEICNEADLCDPHKGLYCDYSVDRPRYETGVCAYLVAVGCEFNQVHYHNGQVFQPNPLFSCLCVSGAIGCTPLFIPKLAGSHCSGAKGGKKSDQSNCSLEPLLQQLSTSYKTMPAYRNLPLIWKKKCLVQATKWTPCSRTCGMGISNRVTNENSNCEMRKEKRLCYIQPCDSNILKTIKIPKGKTCQPTFQLSKAEKFVFSGCSSTQSYKPTFCGICLDKRCCIPNKSKMITIQFDCPNEGSFKWKMLWITSCVCQRNCREPGDIFSELKIL
For B2, the ovarian explant weights [5] was “dose-dependent increases”.

B3: CCN5: CCN growth factor protein (protein, UniProt O76076 24-250, looked up)
CCN family member 5: QLCPTPCTCPWPPPRCPLGVPLVLDGCGCCRVCARRLGEPCDQLHVCDASQGLVCQPGAGPGGRGALCLLAEDDSSCEVNGRLYREGETFQPHCSIRCRCEDGGFTCVPLCSEDVRLPSWDCPHPRRVEVLGKCCPEWVCGQGGGLGTQPLPAQGPQFSGLVSSLPPGVPCPEWSTAWGPCSTTCGLGMATRVSNQNRFCRLETQRRLCLSRPCPPSRGRSPQNSAF
With B3 the ovarian explant weights [5] was “dose-dependent increases”.

B4: CCN3: CCN growth factor protein (protein, UniProt P48745 32-357, looked up)
CCN family member 3: TQRCPPQCPGRCPATPPTCAPGVRAVLDGCSCCLVCARQRGESCSDLEPCDESSGLYCDRSADPSNQTGICTAVEGDNCVFDGVIYRSGEKFQPSCKFQCTCRDGQIGCVPRCQLDVLLPEPNCPAPRKVEVPGECCEKWICGPDEEDSLGGLTLAAYRPEATLGVEVSDSSVNCIEQTTEWTACSKSCGMGFSTRVTNRNRQCEMLKQTRLCMVRPCEQEPEQPTDKKGKKCLRTKKSLKAIHLQFKNCTSLHTYKPRFCGVCSDGRCCTPHNTKTIQAEFQCSPGQIVKKPVMVIGTCTCHTNCPKNNEAFLQELELKTTRGKM
In the case of B4, the ovarian explant weights [5] is reported as “dose-dependent increases”.
